Legend:
[1] = system: RPMI 1788 leukocytes adhesion to L929 fibroblasts; test: Adhesion of human leukocytes RPMI-1788 to confluent L929 fibroblasts; assay type: cell-based; conditions: for Adhesion, Percent of Control: N=6
[2] = system: J774 A1 mouse macrophages adhesion to L929 fibroblasts; test: Adhesion of J-774 A1 mouse macrophages to confluent L929 fibroblasts; assay type: cell-based; conditions: N=6
[3] = system: CF1 male mice, LPS Salmonella abortus equi induced death; test: Protection against septic shock (LPS induced endotoxic shock); assay type: in vivo; conditions: for Percent Survival at 52 hr: LPS 10 mg/kg, CF1 male mice, N=6
Source text: Few reports in the literature indicate interaction at these receptor sites other than by peptides or antibodies. […] Blocking these receptors is desirable because the entire inflammation cascade of events is triggered by the early release of TNFa and IL-1. […] Radioisotopes were obtained from New England Nuclear [Dupont, Boston, MA] and substrates and co- factors were obtained from Sigma Chemical Co. [St. Louis, MO]. […] Cell lines were obtained from American Type Culture Collection [Rockville, MD]. In Vivo Tests Anti-inflammatory screen in mice: Male CF male mice weighing 28-32g obtained from Jackson Lab. [Bar Harbor, […]] were used to screen agents at 8 or 16 mg/kg intraperitoneal [I.P.] x 2 administered 3 hr and 30 min prior to administering the irritant, according to Winter's protocol. Evaluation of the induced edema was made by injecting 2% carrageenan in 0.9% saline into the plantar region of the foot. The opposite foot injected with 0.9% isotonic saline was used as a base line. […] Salmonella abortus equi [Lot # 69F4003] […] Drugs from 2 to 16 mg/kg, I.P. were administered 2 hr prior and 2 hr post-injection of the LPS and then subsequently for every 24 hr for the length ofthe animals' lives. Deaths were recorded every 12 hr and continued for 96 hr. […] In vitro TNFa andIL-1 Measurements and Cellular Regulation IC-21 mouse macrophages were maintained in RPMI-1640 + 10% FCS + P/S. After the cells had grown to confluency, E. coli LPS at 10 Ixg/ml was added to the medium. Agents were incubated at 12.5 to 100 µM final concentration for 18 hr. The medium (100 btl) was collected for TNFCt determinations. Interleukin-1 [IL-1] release was determined using P388D1 cells which were maintained in RPMI-1640 + 10% FCS + P/S. The L929 bioassay was used to quantitate the TNF and the IL-1 levels. The L929 mouse fibroblasts were grown in DMEM + 10% FCS + P/S to confluency in 96 well plates and incubated with 100 tl ofmedium from […] or P388D cells after 18 hr. The cells were stained with 0.2% crystal violet in 20% MeOH and read at 580 nm using a Molecular Devices scanner (SOFT-max program). High Affinity Binding to Receptors on L929-106 Cells Two laCi of 125I-TNFct (human recombinant, 30 mCi/tg New England Nuclear) or 125I-IL-1 (70-120[.t Ci/lxg,New England Nuclear) was added to confluency L929 cells for 90 min or 5 hr, respectively with 25, 50 and 100 tM of the test compounds 12]. The cells were washed repeatedly with isotonic saline, pH.7.2 and aliquots counted. Prostaglandin cylcooxygenase activity Mouse J774AI macrophages maintained in Dulbecco's modified Eagle's medium + 15% FCS + P/S. Cells (5 x 106) were incubated with agents (5 to 100 ].tM final concentration) and 3H-arachidonic acid (100 Ci/mol) for 60 min at 37C in a CO2 incubator. The reaction was terminated with 2N HCI, the mixture extracted 2 X with ether, and the organic layer evaporated.

[4] = biological target: J774-A1 macrophage elastase; test: Elastase activity in J774-A1 macrophages; assay type: biochemical, mouse
[5] = system: IL-8 high affinity receptor on chinese hamster ovarian carcinoma K-1 cells; test: 125I-IL-8 high affinity binding to chinese hamster ovarian carcinoma K-1 cells; conditions: for 125I-IL-8 binding, Percent of Control: N=6
[6] = biological target: T1, IL-2 high affinity receptor on HUT78 T lymphoma cell membrane (Homo sapiens, UniProt P01589+P14784); test: 125I-IL-2 high affinity binding to HuT78 T lymphoma cells; conditions: for 125I-IL-2 binding, Percent of Control: N=6
T1 construct: host or cells: HuT78 T lymphoma cells
T1 sequence (P01589 22-272): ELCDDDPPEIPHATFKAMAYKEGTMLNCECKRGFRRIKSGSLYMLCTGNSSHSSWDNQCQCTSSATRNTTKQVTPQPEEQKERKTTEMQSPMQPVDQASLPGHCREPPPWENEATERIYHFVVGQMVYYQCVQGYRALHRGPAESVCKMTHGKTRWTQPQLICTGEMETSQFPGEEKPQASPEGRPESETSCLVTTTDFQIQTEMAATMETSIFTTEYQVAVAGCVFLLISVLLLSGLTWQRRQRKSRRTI
T1 sequence (P14784 27-551): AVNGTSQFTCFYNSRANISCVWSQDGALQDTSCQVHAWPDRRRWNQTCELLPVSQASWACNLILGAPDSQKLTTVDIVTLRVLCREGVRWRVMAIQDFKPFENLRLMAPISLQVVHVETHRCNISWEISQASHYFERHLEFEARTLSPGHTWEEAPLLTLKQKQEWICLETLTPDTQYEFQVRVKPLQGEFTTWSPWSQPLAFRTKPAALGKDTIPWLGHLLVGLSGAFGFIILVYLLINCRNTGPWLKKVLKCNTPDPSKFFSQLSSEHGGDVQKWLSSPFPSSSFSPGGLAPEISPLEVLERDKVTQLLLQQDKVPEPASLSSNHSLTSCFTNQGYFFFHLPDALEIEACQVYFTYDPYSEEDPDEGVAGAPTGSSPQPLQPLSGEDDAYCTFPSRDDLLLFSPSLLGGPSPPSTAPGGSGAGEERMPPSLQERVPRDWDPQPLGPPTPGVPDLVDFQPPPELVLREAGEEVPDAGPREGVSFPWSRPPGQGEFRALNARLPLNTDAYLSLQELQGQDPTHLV

In the case of `CC(=O)Oc1c2cc(S(=O)(=O)[O-])cc1Cc1cc(S(=O)(=O)[O-])cc(c1OC(C)=O)Cc1cc(S(=O)(=O)[O-])cc(c1OC(C)=O)Cc1cc(S(=O)(=O)[O-])cc(c1OC(C)=O)Cc1cc(S(=O)(=O)[O-])cc(c1OC(C)=O)Cc1cc(S(=O)(=O)[O-])cc(c1OC(C)=O)Cc1cc(S(=O)(=O)[O-])cc(c1OC(C)=O)Cc1cc(S(=O)(=O)[O-])cc(c1OC(C)=O)C2.[Na+].[Na+].[Na+].[Na+].[Na+].[Na+].[Na+].[Na+]` [Compound 8], the “Adhesion, Percent of Control” value ([1]; 5 μM, 60 min) is reported as 49 + 7% of Control, the “Adhesion, Percent of Control” value ([1]; 5 μM, 90 min) is reported as 108+6% of Control and the “Adhesion, Percent of Control” value ([1]; 12.5 μM, 60 min) is reported as 40+ 5% of Control. The “Adhesion, Percent of Control” value ([1]; 12.5 μM, 90 min) was 65 +6% of Control, the “Adhesion, Percent of Control” value ([1]; 25 μM, 2 Hours) was 108+4% of Control and the “Adhesion, Percent of Control” value ([1]; 25 μM, 60 min) was 41 +5% of Control. The “Adhesion, Percent of Control” value ([1]; 25 μM, 90 min) was 63+3% of Control, the “Adhesion, Percent of Control” value ([1]; 50 μM, 2 Hours) was 116+6% of Control and the “Adhesion, Percent of Control” value ([1]; 50 μM, 60 min) was 55+4% of Control. For the same compound, the “reducing the adhesion of human leukocytes” value ([1]; 5 to 50 μM, at 2 and 5 hr) was “not effective”, the “reducing significantly the adhesion of human leukocytes” value ([1]; 5 to 50 μM, at 60 and 90 min) was “effective” and the “Adhesion, Percent of Control” value ([2]; 5 μM, 2 Hours) was 73 + 5% of Control. The “Adhesion, Percent of Control” value ([2]; 5 μM, 5 Hours) was 107 + 5% of Control, the “Adhesion, Percent of Control” value ([2]; 5 μM, 90 min) was 136 + 5% of Control and the “Adhesion, Percent of Control” value ([2]; 12.5 μM, 2 Hours) was 61 + 6% of Control. For the same compound, the “Adhesion, Percent of Control” value ([2]; 12.5 μM, 5 Hours) was 106 + 6% of Control, the “Adhesion, Percent of Control” value ([2]; 12.5 μM, 90 min) was 135 + 7% of Control and the “Adhesion, Percent of Control” value ([2]; 25 μM, 2 Hours) was 91 + 5% of Control. For the same compound, the “Adhesion, Percent of Control” value ([2]; 25 μM, 5 Hours) was 125 + 7% of Control, the “Adhesion, Percent of Control” value ([2]; 25 μM, 90 min) was 183 + 7% of Control and the “Adhesion, Percent of Control” value ([2]; 50 μM, 2 Hours) was 92 + 6% of Control. For the same compound, the “Adhesion, Percent of Control” value ([2]; 50 μM, 5 Hours) was 131 + 7% of Control, the “Adhesion, Percent of Control” value ([2]; 50 μM, 90 min) was 94 + 6% of Control and the “Percent Survival at 52 hr” value ([3]; 2 mg/kg I.P.) was 67%. The “Percent Survival at 52 hr” value ([3]; 4 mg/Kg I.P.) was 67%, the “Percent Survival at 52 hr” value ([3]; 8 mg/Kg I.P.) was 67% and the “Percent Survival at 52 hr” value ([3]; 16 mg/Kg I.P.) was 83%. For the same compound, the “protection from LPS induced death” value ([3]; 16 mg/kg) was 83%, the IC50 ([4]; 60 min) was 10 to 30 µM and the IC50 ([4]; 60 min, listed as #8) was 24.5 µM. For the same compound, the IC50 ([4]; 120 min) was 350 µM, the “125I-IL-8 binding, Percent of Control” value ([5]; 50 μM, 5 Hours) was 79 + 4% of Control and the “125I-IL-8 binding, Percent of Control” value ([5]; 50 μM, 24 Hours) was 58 + 7% of Control. The “reduction of IL-8 high affinity binding” value ([5]; 50 μM, 5 hr) was 21-23%, the “125I-IL-8 binding, Percent of Control” value ([5]; 100 μM, 24 Hours) was 51 + 6% of Control and the “reduction of IL-8 high affinity binding” value ([5]; 24 hr) was “greater than 40%”. The “125I-IL-2 binding, Percent of Control” value ([6]; 5 μM, 2 Hours) was 138 + 5% of Control, the “125I-IL-2 binding, Percent of Control” value ([6]; 5 μM, 5 Hours) was 85 + 5% of Control and the “125I-IL-2 binding, Percent of Control” value ([6]; 12.5 μM, 2 Hours) was 215 + 7% of Control. The “125I-IL-2 binding, Percent of Control” value ([6]; 12.5 μM, 5 Hours) was 78 + 4% of Control, the “125I-IL-2 binding, Percent of Control” value ([6]; 25 μM, 2 Hours) was 88 + 6% of Control and the “125I-IL-2 binding, Percent of Control” value ([6]; 25 μM, 5 Hours) was 59 + 5% of Control. The “125I-IL-2 binding, Percent of Control” value ([6]; 50 μM, 2 Hours) was 38 + 4% of Control, the “125I-IL-2 binding, Percent of Control” value ([6]; 50 μM, 5 Hours) was 55 + 6% of Control and the “reduction of IL-2 binding” value ([6]; 50 μM, 2 hr) was 62%. The “reduction of IL-2 high affinity binding” value ([6]; 50 μM, 5 hr) was 45%.

From paper PMC2365101, “Anti-Inflammatory Activity of (Polyphenolic)-Sulfonates and Their Sodium Salts in Rodents” (Metal-Based Drugs, 1998)
